According to US20110191897A1, “Plants Tolerant to HPPD Inhibitor Herbicides” (Bayer CropScience AG, priority 2009, published 2011):
Values joined by “and” are separate entries in the source; they are usually repeats but may differ in a detail not shown here. Equal values may be shown once.

What was measured:
[1] = test system: soybean events expressing the FMP37 HPPD protein; experiment: Soybean greenhouse treatment with tembotrione; type: in vivo; conditions: 100 g Al/ha, eight events
Description: Plants containing the transgene were then sprayed with HPPD inhibitor herbicides, as for example with tembotrione at a rate of 100 g Al/ha. Ten days after the application the symptoms due to the application of the herbicide were evaluated and compared to the symptoms observed on a wild type plants under the same conditions.
Eight events expressing the FMP37 HPPD protein have been generated from the green shoots of above and were transferred to the greenhouse. Four weeks after acclimation, i.e. plants at a developmental stage of 3-4 internodes were treated with 100 g Al/ha tembotrione prepared from a WP 20 formulation supplemented with ammonium sulfate and methyl ester raps oil. Ten days after application, the symptoms caused by the application of the HPPD inhibitor herbicide were evaluated and compared to the symptoms observed on treated non-transgenic wild-type soybean plants.

[2] = test system: T1 tobacco plants with Arabidopsis HPPD; experiment: Glasshouse spray trial, herbicidal damage; type: in vivo, Nicotiana tabacum; conditions: 100 gAl/ha, 7DAT
Description: (§1) T0 Tobacco plants containing either the gene from Arabidopsis coding for HPPD or the gene FMP37e from Blepharisma japonicum coding for FMP37 HPPD, mentioned above (Example 3), were transferred to the glasshouse (28/20° C.), to develop further and produce seeds. Those seeds were harvested and put on soil (ED73 mixed with sand and osmocote Pro) to germinate in the glasshouse (28/20° C.). Three to four weeks later, plantlets were transferred to single pots containing the soil mentioned above. Two weeks later, plants of a size 4-6 cm diameter were sprayed with either • tembotrione at 100 Al/ha prepared from a WP20 (wettable powder 20%) formulation supplemented with ammonium sulfate and methyl ester raps oil, or • isoxaflutole at 100 Al/ha prepared from a WP20 formulation supplemented with ammonium sulfate and methyl ester raps oil, or • bicyclopyrone at 100 gAl/ha prepared from a WP20 formulation supplemented with ammonium sulfate and methyl ester raps oil, or • “blind formulation” made from a WP20 formulation without active ingredient (Al) supplemented with ammonium sulfate and methyl ester raps oil, and were then transferred to a growth chamber with adequate light conditions (20000Lux).

[3] = test system: T1 tobacco plants with FMP37e coding for the HPPD FMP37; experiment: Glasshouse spray trial, herbicidal damage; type: in vivo, Nicotiana tabacum; conditions: line 113, individual plants, 100 gAl/ha, 7DAT
Description: as §1

[4] = biological target: T1, Arabidopsis thaliana HPPD (SEQ ID No. 10) (Arabidopsis thaliana, UniProt P93836); experiment: Spectrophotometric HPPD activity assay in presence of HPPD inhibitors; type: biochemical
T1 construct: made in house; host or cells: E. coli K-12 BL21 (pQE30-AtHPPD)
T1 sequence (P93836 with tags, fused parts or gaps): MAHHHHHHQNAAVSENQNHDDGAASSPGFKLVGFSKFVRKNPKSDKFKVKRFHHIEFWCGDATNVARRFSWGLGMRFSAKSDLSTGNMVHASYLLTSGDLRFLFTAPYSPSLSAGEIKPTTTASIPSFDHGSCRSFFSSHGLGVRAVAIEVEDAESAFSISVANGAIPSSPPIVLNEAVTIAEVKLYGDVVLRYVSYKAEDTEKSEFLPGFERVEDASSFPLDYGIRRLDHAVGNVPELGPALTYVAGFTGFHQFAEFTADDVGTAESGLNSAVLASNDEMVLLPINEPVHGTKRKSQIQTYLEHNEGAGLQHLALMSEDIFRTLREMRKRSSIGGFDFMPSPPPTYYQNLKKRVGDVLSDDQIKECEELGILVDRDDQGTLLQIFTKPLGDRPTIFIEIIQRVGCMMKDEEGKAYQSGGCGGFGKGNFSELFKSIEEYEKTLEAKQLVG

[5] = test system: tobacco plants with FMP37t-h, PAT and 2mEPSPS (pFCO112); experiment: Glasshouse trial of tobacco with three tolerance genes; type: in vivo, Nicotiana tobacum; conditions: 9 DAT
Description: A binary vector for tobacco transformation is, for example, constructed with the CaMV35 promoter driving the expression of the gene FMP37t-h (SEQ ID No. 15), with a codon usage optimized for the expression in dicotyledoneous plants and at its 5′ extremity was added a sequence coding for an OTP, and further upstream a sequence TEV (Tobacco etch virus) to improve the stability of the mRNA in plants followed by the CaMV35S terminator. The nucleotide sequence of the gene FMP37t-h is given in SEQ ID No. 15. Additionally, the transformation vector also contains a PAT gene cassette in which the gene is driven by a CaVM35S promoter and followed by a CaMV35S terminator for glufosinate based selection during the transformation process and a 2mEPSPS gene cassette in which the gene is driven by an histone promoter from Arabidopsis to confer tolerance to the herbicide glyphosate to the transformed plants (see FIG. 3 H). The binary vector was called pFCO112. The above vector was used to transform leaf disks obtained from Nicotiana tobacum plants, according to Example 3.
Transgenic tobacco plants were transferred to the greenhouse and treated with glyphosate at a rate of 1121 g Al/ha. Seeds were produced from such tolerant tobacco plants and harvested. These seeds were put on soil to germinate in the glasshouse. Three to four weeks later, 50 plantlets per event were transferred to single pots. Two weeks later, plants of a size 4-6 cm were sprayed either with:
[…] […] Non-transgenic tobacco plants were completely killed by treatment using one or more of the above herbicides.

[6] = test system: T0 rice plants with FMP37e; experiment: Rice glasshouse trial, response to tembotrione; type: in vivo; conditions: 100 g AI/ha, 7 DAT
Description: (§2) T0 rooted plantlets (either selected on phosphinothricin alone or on phosphinothricin supplemented with tembotrione) were transferred to soil in the glasshouse. Following an acclimation period, sufficiently grown plants were treated with the different HPPD inhibitor herbicides. As an example, T0 plants were sprayed with tembotrione of formulation type WP20 100 g Al/ha supplemented with ammonium sulfate and methyl ester raps oil. Seven days after the spray application, the symptoms due to the application of the herbicide were evaluated and compared the symptoms observed on wild type plants submitted to the same treatment.
(§3) The plants were classified in three categories based on the phenotype developed in response to the herbicide seven days after the treatment.

[7] = test system: wild type rice plants; experiment: Rice glasshouse trial, response to tembotrione; type: in vivo; conditions: 100 g AI/ha, 7 DAT
Description: as §2, §3

Q: Which “events with bleaching like non-transgenic wild-type soybean plant” value [1] does the source give for `CS(=O)(=O)c1ccc(C(=O)C2C(=O)CCCC2=O)c(Cl)c1COCC(F)(F)F` [Tembotrione, 2-[2-chloro-4-(methylsulfonyl)-3-[(2,2,2,-tri-fluoroethoxy)methyl]benzoyl]-1,3-cyclo-hexanedione] here?
A: two events

Q: What about the “events with local transitory bleaching symptoms, recovered completely 7 days after application” value [1] of the same molecule?
A: One other event

Q: And the “events with transitory light bleaching symptoms, recovered 14 days after application” value [1]?
A: One event

Q: And the “events without any bleaching phenotype” value ([1]; ten days after application)?
A: Four of the eight events

Q: And the “% injury” value ([2]; line 252, individual plants)?
A: 40%

Q: And the “% injury” value ([2]; line 258, individual plants)?
A: 100%

Q: What about the “% injury” value ([2]; line 327, individual plants) of the same molecule?
A: 40% and 50%

Q: And the “% injury” value [3]?
A: 5% and 10% (2×) and 40% and 70%

Q: And the IC50 [4]?
A: < 2510 nM

Q: What about the “% Inhibition” value ([4]; 1.0E−05 M) of the same molecule?
A: 97%

Q: And the “% Inhibition” value ([4]; 2.5E−04 M)?
A: 97%

Q: What about the “% Inhibition” value ([4]; 2.5E−05 M) of the same molecule?
A: 93%

Q: What about the “% Inhibition” value ([4]; 2.5E−06 M) of the same molecule?
A: 82%

Q: What about the “% Inhibition” value ([4]; 5.0E−06 M) of the same molecule?
A: 90%

Q: What about the inhibition at 5 µM ([4]; 5.0 × 10^−6M inhibitor (Table 4), read-out: percentage of inhibition) of the same molecule?
A: 92%

Q: And the “% Inhibition” value ([4]; 6.3E−05 M)?
A: 97%

Q: And the “number of plants in Class I (no injuries)” value (shortened to “number … (no injuries)”) ([5]; line 634, 100 g AI/ha)?
A: 0

Q: And the “number of plants in Class II (injury: 10-40%)” value (from here on “number … (injury: 10-40%)”) ([5]; line 634, 100 g AI/ha)?
A: 3

Q: What about the “number of plants in Class III (injury: 41-100%)” value (“number … (injury: 41-100%)” for short) ([5]; line 634, 100 g AI/ha) of the same molecule?
A: 7

Q: What about the “number … (no injuries)” value ([5]; line 713, 100 g AI/ha) of the same molecule?
A: 0

Q: What about the “number … (injury: 10-40%)” value ([5]; line 713, 100 g AI/ha) of the same molecule?
A: 6

Q: What about the “number … (injury: 41-100%)” value ([5]; line 713, 100 g AI/ha) of the same molecule?
A: 4

Q: And the “number … (no injuries)” value [6]?
A: 1

Q: And the “number … (injury: 10-40%)” value [6]?
A: 6

Q: What about the “number … (injury: 41-100%)” value [6] of the same molecule?
A: 16

Q: What about the “number … (injury: 10-40%)” value [7] of the same molecule?
A: 0
